The results in this text go back to patent US12521439B2, “Methods and materials for modulating Nrf2 pathway” (The General Hospital Corporation, priority 2019, dated 2026).

One may read the Tmax as the time at which the peak concentration occurs. What is called half-life is how long it takes for the measured level to halve.

Data set [1] addresses Keap1 (Homo sapiens, UniProt Q14145). Put plainly: Differential alkylation mass spectrometry, Keap1. The format is binding.
The subject of data set [2] is GSCs (GBM8 and BT07). Put plainly: Multiplexed quantitative (TMT) proteomics after OBT treatment. The settings on record: 20 h after subtoxic dose, two GSC lines. The format is cell-based, human. As to the method: Quantitative Proteomics: Cell pellets were lysed in a buffer of 75 mM NaCl, 50 mM HEPES pH 8.5, 10 mM sodium pyrophosphate, 10 mM sodium fluoride, 10 mM β-glycerophosphate, 10 mM sodium orthovanadate, 10 mM PMSF, Roche complete mini EDTA free protease inhibitors (1 tablet per 20 ml), and 3% SDS. Lysis was achieved by passing the suspension through a 21-gauge needle 20 times. Proteins were prepared for proteomics analysis as described previously. […] Twelve fractions were analyzed by multiplexed quantitative proteomics performed on an Orbitrap Fusion mass spectrometer (Thermo Scientifc) using a Simultaneous Precursor Selection (SPS) based MS3 method. […] For the cell line samples only MS3 with an average signal-to-noise value of larger than 40 per reporter ion as well as with an isolation specificity of larger than 0.75 were considered for quantification. […] A two-step normalization of the protein TMT-intensities was performed by first normalizing the protein intensities over all acquired TMT channels for each protein based on the median average protein intensity calculated for all proteins. To correct for slight mixing errors of the peptide mixture from each sample a median of the normalized intensities was calculated from all protein intensities in each TMT channel and the protein intensities were normalized to the median value of these median intensities. […]

A short description of data set [3]: Pharmacokinetics after single i.p. administration. The format is in vivo, male Swiss Albino mice. As to the method: Pharmacokinetics studies: These studies were performed by SAI Lifesciences using Male Swiss Albino mice. OBT was resuspended in a solution formulation of 10% DMA, 10% EtOH, 10% PEG400 in 70% of (2-hydroxypropyl)-[…] (HPβCD). OBT was administered by intraperitoneal (i.p.) injection at 7.5 mg/kg. Blood samples were collected from mice, at 0, 0.08, 0.25, 0.5, 1, 2, 4, 8 and 24 hr. Immediately after blood collection, plasma was harvested by centrifugation and stored until analysis. After collection of blood, brain samples were collected from each mouse at 0.5, 4 and 24 h. Tissue samples were homogenized using ice-cold phosphate buffer saline (pH7.4) and homogenates were stored until analysis. Total homogenate volume was three times the tissue weight. Plasma samples were quantified by LC-MS/MS method (LLOQ=1.00 ng/mL) for plasma and brain.

Data set [4] concerns tumour-infiltrating CD4+ and CD8+ T cells. The experiment in a line: Ex vivo stimulation of tumour-infiltrating T cells (anti-CD3/anti-CD28). The settings on record: cells from OBT-treated tumours, cultured 3 days. Format: cell-based, mice. An excerpt: To confirm reversion of T cell exhaustion and activation of cytotoxic T cells by OBT, tumour-infiltrating CD4+ and CD8+ T cells (n=3) were isolated and cultured in the presence of anti-CD3 and anti-CD28 antibodies to mimic an antigenic stimulation.

The subject of data set [5] is MDA-MB231 cells. Put plainly: Cell viability (CellTiter-Glo), MDA-MB231. The format is cell-based, human. The note with it: co-treatment MLN4924 (1 μM), three days. As for the experimental part:
(§1) Cell culture: MDA-MB-231 and U87 (U87-MG) cells were obtained from the American Type Culture Collection (ATCC). 293T human embryonic kidney fibroblasts were provided by Dr. Xandra Breakefield (Massachusetts General Hospital). All three cell lines were grown in Dulbecco's modified Eagle medium supplemented with 10% fetal bovine serum (Gemini Bio-products), 100 U penicillin, and 0.1 mg/mL streptomycin (Sigma). All cells were maintained at 37° C. in a humidified 5% CO2 incubator. GSCs were obtained from tumor tissues of GBM patients following surgical resection, under approval from the corresponding Institutional Review Board. These cells have been previously characterized (ref. 37-39) and were maintained in culture as neurospheres in Neurobasal medium (Gibco) supplemented with heparin (2 μg/mL; Sigma) and recombinant EGF (20 ng/mL) and bFGF-2 (10 ng/mL; Peprotech). Human Astrocytes were obtained from ScienCell and cultured in Astrocytes Medium (ScienCell)
(§2) Cell viability: Cells were plated in 96-well plates and treated with the corresponding compounds. Cell viability was measured by adding 25 μl/well of CellTiter-Glo (Promega) followed by 10 minutes incubation and transfer to a white 96-well plate. Bioluminescence was quantified using Synergy HTX multimode reader (Biotek).
For orientation: ATP-based viability assays read luminescence as a measure of living cells.

Data set [6] has as its system U87 glioma cells. Put plainly: Cell viability (CellTiter-Glo), U87. The note with it: shKeap1 vs shCtr1, four days. Format: cell-based, human. As to the method:
as §1, §2

Sequence of Keap1 (Q14145 whole entry, species assumed): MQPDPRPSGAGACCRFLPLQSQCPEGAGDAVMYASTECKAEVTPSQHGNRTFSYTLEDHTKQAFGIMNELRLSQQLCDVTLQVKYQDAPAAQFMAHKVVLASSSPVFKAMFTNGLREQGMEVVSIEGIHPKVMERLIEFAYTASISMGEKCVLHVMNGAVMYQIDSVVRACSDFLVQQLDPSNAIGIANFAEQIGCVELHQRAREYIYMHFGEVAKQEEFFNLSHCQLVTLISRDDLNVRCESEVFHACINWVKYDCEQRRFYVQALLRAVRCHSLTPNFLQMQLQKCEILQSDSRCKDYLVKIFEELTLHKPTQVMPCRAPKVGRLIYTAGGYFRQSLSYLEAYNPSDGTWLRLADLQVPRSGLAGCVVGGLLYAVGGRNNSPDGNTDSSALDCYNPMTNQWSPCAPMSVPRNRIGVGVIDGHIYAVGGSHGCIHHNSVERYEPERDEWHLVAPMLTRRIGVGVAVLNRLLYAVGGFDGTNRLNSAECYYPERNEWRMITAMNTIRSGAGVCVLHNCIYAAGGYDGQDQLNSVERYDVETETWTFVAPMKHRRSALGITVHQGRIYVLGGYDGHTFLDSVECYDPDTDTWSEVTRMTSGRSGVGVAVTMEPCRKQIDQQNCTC

Consider `COC1=CC(=O)C(O)=C/C1=C/C=C/c1ccccc1` [OBT, (Z)-2-hydroxy-5-methoxy-4-((E)-3-phenylallylidene)cyclohexa-2,5-dien-1-one], for which the “reversibility of modification at Cys151 and Cys434” value in data set [1] (Cys151 BTB domain, Cys434 Kelch domain) was “partially reversible”. In data set [1] (differential alkylation), the “covalent binding to cysteine sites of Keap1” value is reported as “bind covalently to all identified cysteine sites”. Moreover, the “heme oxygenase 1 (HMOX1; HO1) protein change” value in data set [2] was “top upregulated protein”. Further, in data set [3] (7.5 mg/kg i.p.), the “Vss relative to normal volume of total body water (0.7 L/kg)” value was 3 fold and the systemic plasma clearance result was “high”. For the same compound, the “time up to which plasma concentrations were detected” value in data set [3] (7.5 mg/kg i.p., LC-MS/MS) was “up to 24 hrs”. Moreover, the blood-brain barrier penetration result in data set [3] (intact BBB) was “efficiently penetrates”. The Kp at 0.5 h in data set [3] (male, Swiss Albino, mouse, brain, ip, 7.5 mg/kg, 0.5 hr after single i.p. dose, read-out: brain-to-plasma ratio) turned out to be 0.27. Further, the Kp at 4 h in data set [3] (male, Swiss Albino, mouse, brain, ip, 7.5 mg/kg, 4 hrs after single i.p. dose, read-out: brain-to-plasma ratio) came to 0.5. In data set [3] (male, Swiss Albino, mouse, ip, plasma, 7.5 mg/kg i.p.), the Tmax is 30 min. Besides, in data set [3] (male, Swiss Albino, mouse, plasma, ip, 7.5 mg/kg i.p., read-out: terminal plasma half-life), the half-life is 24 min. In addition, in data set [4], the “response of CD4+ T cells to antigenic stimulus” value is reported as “no change” and the “response of CD8+ T cells to antigenic stimulus (proliferation, Ki67, granzyme B)” value was “significantly more responsive”. In addition, the “cell death with neddylation inhibitor MLN4924” value in data set [5] was “protection against cell death”. In addition, in data set [6], the “cell death after silencing of Keap1” value is recorded as “decreased cell death”.
